How the values were obtained:
[1] = Solid stability test (purity by liquid chromatography, XRD, TG-DTA after storage); format: physicochemical; conditions: 1 month at 40° C. (open system), 40° C. (humidity, 75%), or 60° C. (open system)
Protocol: An examination by liquid chromatography was made under the following test conditions.
Apparatus: Hitachi L-2455
Mobile phase A: 10 mM aqueous Na2HPO4 solution (pH, 6.5)
Mobile phase B: acetonitrile
Column: GL Science Inertsil ODS-3; 4.6×150 mm; S=5 μm
Measuring wavelength: 220 nm
(open system), 40° C. (humidity, 75%), or 60° C. (open system). Thereafter, the crystals were examined for purity by liquid chromatography. As a result, the change in purity through the test was 0.1% or less under all those conditions.

[2] = Solubility measurement (solubility measuring method of The Japanese Pharmacopoeia); conditions: 37° C.

CNC(=O)c1cc2c(Oc3ccc(NC(=S)NC(=O)Cc4ccccc4)cc3F)ccnc2cc1OC.CS(=O)(=O)O [Example 1, mesylic acid salt of 4-(2-fluoro-4-(3-(2-phenylacetyl)thioureido)phenoxy)-7-methoxy-N-methylquinoline-6-carboxamide]
change in examinations by XRD and TG-DTA [1]: no marked change | change in purity through the test ([1]; all those conditions): ≤ 0.1% | Solubility, Taurocholic acid ([2]; 20-mM aqueous taurocholic acid solution): 120 µg/mL | Solubility, FeSSIF ([2]; FeSSIF): 11 µg/mL | Solubility, Dissolution-test second liquid ([2]; dissolution-test second liquid according to The Japanese Pharmacopoeia): 1.0 µg/mL | Solubility, Purified water ([2]; purified water): 35 µg/mL

— patent US10143688B2, “Mesylic acid salt of acylthiourea compound, crystal of the same, and process for producing these” (priority 2015, dated 2018)
